Reference: patent publication US8629167B2, “Selective androgen receptor modulators” (Radius Health, Inc., priority 2008, dated 2014)
Read-outs that look alike come from different tables or passages of the source.

Assays:
androgen receptor = androgen receptor (Rattus norvegicus (Rat), UniProt P15207); experiment: androgen receptor binding assay (fluorescence polarization, AR-Fluormone complex)
Description: The assay was performed as specified by the manufacturer (Invitrogen, Madison, Wis.). Briefly, 1 μl of 10 mM compound was added to 500 μl of AR screening buffer in a 1.5 ml eppendorf tube to make a 2×10^−5 M stock. 10-fold serial dilutions of the test compounds were prepared ranging in concentration from 10^−5M to 10^−12 M. Each dilution was added in triplicate to a black 384-microtiter plate. The test compounds will be diluted 2-fold in the final reaction. 2×AR-Fluormone™ complex was prepared with 2 nM Flourmone AL Green™ and 30 nM AR. 25 μl of 2× complex was aliquoted to each reaction well, such that the final reaction volume was 50 μl per well. Plate was sealed with a foil cover and incubated in the dark at room temperature for 4 h. Polarization values for each well were measured. The polarization values were plotted against the concentration of the test compound. […] As a control, a competition curve for R1881 (methyltrienolone) was performed for each assay. Curve Fitting was performed using GraphPad Prism® software from GraphPad™ Software Inc. Binding data are reported as a single determination if the experiment was run once only and as the average of experiments if the binding experiment was performed two or more times with that compound.
Were multiple data points have been taken, the value reported is the average of the multiple determinations.

[1] = system: young, orchidectomized rats; experiment: Rat Herschberger assay (in vivo androgen and anabolic activity); conditions: organ weight, 10 mg/kg (po), treated for 4 days
Description: The following is a typical procedure of the in vivo evaluation of the selective androgens of this invention. In particular, this assay looks primarily at the ability of the selective androgens of this invention to increase muscle size in an immature, castrated rat. In addition, androgenic effects are looked at primarily by weighing the prostate and seminal vesicles. Selective compounds will show a greater increase in the levator ani relative to the prostate and seminal vesicles when compared to testosterone treated, castrated animals or to intact animals that have not been treated. Immature Sprague Dawley male rats were obtained Charles River Laboratories (Stoneridge, N.Y.). All animals were maintained in a temperature and humidity controlled room with a 12 hr light: 12 hr dark cycle, with ad lib access to food (TD 291615, Teklad, Madison, Wis.) and water. Rats were anesthetized and orchidectomized (GDX) or sham surgery (SHAM) was performed. After a 7-day recovery period, the animals were randomized according to weight and assigned to treatment groups (n=5), SHAM, OVX+vehicle, OVX+Cpd treated. Testosterone propionate (TP 1 mg/kg in 5% DMSO/95% corn oil) was administered by once daily subcutaneous injections, while the compounds of the invention are dosed in vehicle (typically 20% cyclodextrin or 0.5% carboxymethylcellulose) was administered by once daily oral gavage. The rats were then dosed once daily for 4 days. All animals were euthanized via carbon dioxide inhalation 24 hs after the last dose. The prostate, seminal vesicle and levator ani and bulba cavernous (LABC) tissues were removed, weighed and recorded. Body weights were recorded for each animal at baseline and at sacrifice.
Prostate, seminal vesicle and levator ani bulbus cavernosus (LABC) are all represented as % relative to sham. After sacrifice, organ weights of young, orchidectomized rats treated with compound for 4 days are compared to sham operated animals.

[2] = single determination or average of multiple determinations, read-out: Binding IC50 (nM), Compound AR-Binding Affinity

Sequence of androgen receptor (P15207 whole entry, looked up): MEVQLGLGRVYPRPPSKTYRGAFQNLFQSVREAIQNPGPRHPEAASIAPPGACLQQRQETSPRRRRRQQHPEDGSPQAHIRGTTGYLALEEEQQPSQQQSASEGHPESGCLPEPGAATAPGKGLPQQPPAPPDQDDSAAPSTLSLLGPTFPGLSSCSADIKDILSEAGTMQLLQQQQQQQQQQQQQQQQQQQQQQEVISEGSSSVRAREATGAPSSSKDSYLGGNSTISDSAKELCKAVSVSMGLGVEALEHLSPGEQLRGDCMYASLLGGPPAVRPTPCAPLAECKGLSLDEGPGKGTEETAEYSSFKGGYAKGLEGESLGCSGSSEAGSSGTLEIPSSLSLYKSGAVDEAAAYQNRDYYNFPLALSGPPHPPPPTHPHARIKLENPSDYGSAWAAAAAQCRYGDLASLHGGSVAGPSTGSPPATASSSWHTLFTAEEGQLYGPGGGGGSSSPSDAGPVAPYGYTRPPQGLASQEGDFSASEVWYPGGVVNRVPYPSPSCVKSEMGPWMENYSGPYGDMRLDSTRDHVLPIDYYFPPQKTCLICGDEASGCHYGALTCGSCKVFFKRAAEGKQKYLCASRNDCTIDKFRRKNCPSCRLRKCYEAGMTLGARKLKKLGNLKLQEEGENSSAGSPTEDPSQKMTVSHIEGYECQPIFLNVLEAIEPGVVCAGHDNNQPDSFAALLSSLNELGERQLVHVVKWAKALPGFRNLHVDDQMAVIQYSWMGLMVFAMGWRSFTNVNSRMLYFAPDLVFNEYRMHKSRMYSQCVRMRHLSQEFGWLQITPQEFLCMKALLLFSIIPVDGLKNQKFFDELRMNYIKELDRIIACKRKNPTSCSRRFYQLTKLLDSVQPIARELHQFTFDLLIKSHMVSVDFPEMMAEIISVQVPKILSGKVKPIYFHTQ

| Structure (SMILES) | IC50 (androgen receptor) [nM] | other results |
| --- | --- | --- |
| C[C@H](O)[C@@H](Nc1ccc(C#N)c(Cl)c1)c1nnc(-c2ccc(S(C)(=O)=O)cc2)o1 [Example 48, 2-Chloro-4-((1R,2S)-2-hydroxy-1-(5-(4-(methylsulfonyl)phenyl)-1,3,4-oxadiazol-2-yl)propylamino)benzonitrile] | – | IC50 (androgen receptor; [2]): > 1000 nM |
| Cc1c(N[C@@H](c2nnc(-c3ccc(OS(N)(=O)=O)cc3)o2)[C@H](C)O)ccc(C#N)c1Cl [Example 93, 4-(5-((1R,2S)-1-(3-Chloro-4-cyano-2-methylphenylamino)-2-hydroxypropyl)-1,3,4-oxadiazol-2-yl)phenyl sulfamate] | 25 | – |
| CC(=O)O[C@@H](C)[C@@H](Nc1ccc(C#N)c(Cl)c1C)c1nnc(-c2ccc(C#N)cc2)o1 [Example 88, (1R,2S)-1-(3-Chloro-4-cyano-2-methylphenylamino)-1-(5-(4-cyanophenyl)-1,3,4-oxadiazol-2-yl)propan-2-yl acetate] | 110 | – |
| Cc1c(N[C@H](c2ccc(-c3nnco3)cc2)[C@@H](C)OS(N)(=O)=O)ccc(C#N)c1Cl [Example 94, (1R,2R)-1-(3-Chloro-4-cyano-2-methylphenylamino)-1-(4-(1,3,4-oxadiazol-2-yl)phenyl sulfamate)propan-2-yl sulfamate] | – | IC50 (androgen receptor; [2]): > 1000 nM |
| Cc1c(N[C@@H](c2nnc(-c3ccccc3)o2)[C@H](C)O)ccc(C#N)c1Cl [Example 1, 2-chloro-4-((1R,2S)-2-hydroxy-1-(5-phenyl-1,3,4-oxadiazol-2-yl)propylamino)-3-methylbenzonitrile] | – | LABC (levator ani bulbus cavernosus), % relative to sham [1]: 85%; Prostate, % relative to sham [1]: 46%; Seminal vesicle, % relative to sham [1]: 69% |
| Cc1c(N[C@@H](c2nnc(-c3ccc4[nH]ccc4c3)o2)[C@H](C)O)ccc(C#N)c1Cl [Example 98, 4-((1R,2S)-1-(5-(1H-Indol-5-yl)-1,3,4-oxadiazol-2-yl)-2-hydroxypropylamino)-2-chloro-3-methylbenzonitrile] | 80 | – |
| Cc1c(N[C@@H](c2nnc(-c3ccccc3)o2)[C@H](C)OS(N)(=O)=O)ccc(C#N)c1Cl [Example 90, (1R,2S)-1-(3-Chloro-4-cyano-2-methylphenylamino)-1-(5-phenyl-1,3,4-oxadiazol-2-yl)propan-2-yl sulfamate] | 20 | – |
| Cc1c(N[C@@H](c2nnc(-c3ccccc3)o2)[C@@H](C)O)ccc(C#N)c1Cl [Example 3, 2-chloro-4-((1R,2R)-2-hydroxy-1-(5-phenyl-1,3,4-oxadiazol-2-yl)propylamino)-3-methylbenzonitrile] | – | LABC (levator ani bulbus cavernosus), % relative to sham [1]: 99%; Prostate, % relative to sham [1]: 43%; Seminal vesicle, % relative to sham [1]: 37% |
| Cc1c(N[C@@H](c2nnc(-c3ccc(NC(=O)c4ccccc4)cc3)o2)[C@H](C)O)ccc(C#N)c1Cl [Example 77, N-(4-(5-((1R,2S)-1-(3-Chloro-4-cyano-2-methylphenylamino)-2-hydroxypropyl)-1,3,4-oxadiazol-2-yl)phenyl)benzamide] | – | IC50 (androgen receptor; [2]): 1000 nM |
| C[C@H](O)[C@@H](Nc1ccc(C#N)c2scc(Cl)c12)c1nnc(-c2ccc(C#N)cc2)o1 [Example 95, 3-Chloro-4-((1R,2S)-1-(5-(4-cyanophenyl)-1,3,4-oxadiazol-2-yl)-2-hydroxypropylamino)benzo[b]thiophene-7-carbonitrile] | 1 | – |
| CC(=O)Oc1ccc(-c2nnc([C@H](Nc3ccc(C#N)c(Cl)c3C)[C@H](C)OC(C)=O)o2)cc1 [Example 73, 4-(5-((1R,2S)-2-Acetoxy-1-(3-chloro-4-cyano-2-methylphenylamino)propyl)-1,3,4-oxadiazol-2-yl)phenyl acetate] | 30 | – |
| CC(=O)O[C@@H](C)[C@@H](Nc1ccc(C#N)c(Cl)c1C)c1nnc(-c2ccccc2)o1 [Example 76, (1R,2S)-1-(3-chloro-4-cyano-2-methylphenylamino)-1-(5-phenyl-1,3,4-oxadiazol-2-yl)propan-2-yl acetate] | 15 | – |
| CCC(=O)O[C@@H](C)[C@@H](Nc1ccc(C#N)c(Cl)c1C)c1nnc(-c2ccccc2)o1 [Example 84, (1R,2S)-1-(3-Chloro-4-cyano-2-methylphenylamino)-1-(5-phenyl-1,3,4-oxadiazol-2-yl)propan-2-yl propionate] | 25 | – |
| CCCC(=O)O[C@@H](C)[C@@H](Nc1ccc(C#N)c(Cl)c1C)c1nnc(-c2ccc(C#N)cc2)o1 [Example 85, (1R,2S)-1-(3-Chloro-4-cyano-2-methylphenylamino)-1-(5-(4-cyanophenyl)-1,3,4-oxadiazol-2-yl)propan-2-yl butyrate] | 10 | – |
| [2H]c1ccc(-c2nnc([C@H](Nc3ccc(C#N)c(Cl)c3C)[C@H](C)O)o2)cc1 [Example 97, 2-Chloro-4-((1R,2S)-1-(5-(4-deuterophenyl)-1,3,4-oxadiazol-2-yl)-2-hydroxypropylamino)-3-methylbenzonitrile] | 18 | – |
| CCC(=O)O[C@@H](C)[C@@H](Nc1ccc(C#N)c(Cl)c1C)c1nnc(-c2ccc(C#N)cc2)o1 [Example 86, (1R,2S)-1-(3-Chloro-4-cyano-2-methylphenylamino)-1-(5-(4-cyanophenyl)-1,3,4-oxadiazol-2-yl)propan-2-yl propionate] | 120 | – |
